According to patent US20110306554A1, “PEPTIDE CAPABLE OF BINDING TO IMMUNOGLOBULIN” (priority 2009, published 2011):
Each block holds one compound with its values, some of them ahead of it. Non-standard residues stand in square brackets, D forms with d. Residues, ends and D or L forms follow the SMILES beside them. No end group written: not given here.

How the values were obtained:
[1] = system: rat collagen-arthritis model; assay: Arthritis suppressing effects on rat collagen-arthritis model; type: in vivo, rats
Method: A rat collagen-arthritis model was used to examine arthritis suppressing effects of a peptide, referred to as peptide R13.
Female Lewis rats were primed with 500 μg of type II bovine-derived collagen and boosted with 100 μg of the same collagen at 7 and 14 days post priming, to induce collagen arthritis. Peptide R13, a scramble peptide (dYdPdYGdFdL), or methotrexate was administered once a day for a period of 25 consecutive days from 12 days after arthritis was fully developed, and arthritis suppressing effect was examined in terms of clinical score. Methotrexate was administered at a dose of 0.15 mg/kg as a control drug.
The required amount was calculated for each peptide, based on the animal weight. Physiological saline was gradually added to prepare suspensions, to make concentrations of 100 and 10 mg/ml.
The clinical score of each limb of the extremities in all cases was observed every third day from day 12, on which arthritis was developed, up to day 36, with day 0 being the day of priming with type II bovine-derived collagen. Observations were according to the following criteria, with the total score for the extremities being set to a maximum of 12. […]

[2] = system: binding between human C1q protein and human immunoglobulin (IgG); assay: Inhibition of binding between C1q and immunoglobulin (C1q spotted on nitrocellulose membrane, ALP-labeled IgG); conditions: peptide concentration 500 μg/ml, 400 ng human C1q per spot
From the text: Peptides were synthesized by GL Biochem (Shanghai), which have the following amino acid sequences: the amino acid sequence depicted in SEQ ID NO: 2 (peptide R2); a shorter amino acid sequence than this peptide, PGLYYF (SEQ ID NO: 1) (peptide R1); and amino acid sequences including the amino acid sequence depicted in SEQ ID NO: 2, SGKFTCKVPGLYYFT (SEQ ID NO: 3) (peptide R3), FTCKVPGLYYFTYHA (SEQ ID NO: 4) (peptide R4), STGKFTCKVPGLYYF (SEQ ID NO: 5) (peptide R5), and CKVPGLYYFVYHASH (SEQ ID NO: 7) (peptide R6). Each peptide was dissolved in DMSO to make a concentration of 10 mg/ml and stored.
Human C1q protein (Carbiochem) was dissolved in 10 mM HEPES, 300 mM NaCl, 40% glycerol (pH 7.2) to prepare a 200 μg/ml solution of human C1q protein. The solution of human C1q protein was spotted at a volume of 2 μl (400 ng) per spot onto a nitrocellulose membrane of a size of 5 mm by 15 mm (Hybond C; Amersham), which was then air-dried at room temperature for about one hour. The nitrocellulose membrane was soaked in TBS, incubated for 5 minutes, and blocked at room temperature for one hour using TBS (20 mM Tris-HCl, pH 7.5, 150 mM NaCl) containing 5% of a blocking agent (Amersham ECL blocking reagent; GE Healthcare). […]

[3] = system: Monoclonal antibody cocktail-induced arthritis mice; assay: Arthritis suppressing effects on arthritis-induced mice, Part 4; type: in vivo; conditions: intraperitoneal 100 mg/kg once a day from day 4; methotrexate 0.1 mg/kg
Method: Monoclonal antibody cocktail-induced arthritis mice were used to examine arthritis suppressing effects of peptides which are indicated as R13 in the section (3) in Example 2 and as R19 and R21 in the section (4) in Example 2. Arthritis was caused by intravenous administration of 2 mg/mouse of an arthritis-inducing monoclonal antibody cocktail and three days later, intraperitoneal administration of 50 μg/mouse of LPS. The peptides […] days from four days after the administration of the arthritis-inducing monoclonal antibody cocktail, and arthritis suppressing effect was examined in terms of clinical score and hind-limb volume determination.
The required amount was calculated for each peptide, based on the animal weight. […]
Measurement of body weight of animals was made on days 0, 3, 6, 9, 12, and 14 during the study period, with day 0 being the day of administration of the arthritis-inducing monoclonal antibody cocktail. Observation of general condition was made on a daily basis. […]
Results of examinations were expressed by mean value±standard error and analyzed using EXSAS (Version 7.1.6, Arm Systex Co., Ltd.). […] Quantitative data, such as body weights and leg volumes, were subjected to Bartlett's test, followed by Dunnett's multiple comparison test when the variance was uniform or Steel's multiple comparison test when the variance was not uniform.

[4] = system: type III allergic (Arthus) reaction-induced rats; assay: Immune-complex disease suppression in type III allergic (Arthus) reaction-induced rats, Part 2; type: in vivo
Method: Using forty-five 7-week-old male Slc:Wistar rats, examinations were made on peptides R13 and R19, in two series of examinations, each using a different method of administration (intraperitoneal administration and tail vein administration). Acclimation was carried out by giving normal solid chow CRF-1 for a period of 6 or 8 days. The back of the animals was shaved on the day prior to administration, and a mixed solution of OVA and Evans blue dye was administered into the tail vein on the day of administration. Each peptide solution was administered intraperitoneally or into the tail vein 30 minutes or 50 minutes after the administration of the mixed solution of OVA and Evans blue dye, respectively. For intracutaneous administration of an anti-OVA solution, […] was intracutaneously administered in the back of animals at a dose of 0.1 ml/site 30 minutes or 10 minutes after the administration of the tested substance in the case of intraperitoneal or intravenous administration, respectively, so as to generate a local Arthus reaction. After the reaction was allowed to be generated for 4 hours, the animals were euthanized, the blood was removed thoroughly, and then the dorsal skin was exfoliated. The Arthus reaction sites on the exfoliated skin were punched out, and the Evans blue dye was extracted from the punched skin overnight. The amount of dye leakage was quantified by measuring absorbance for the Evans blue dye with a spectrophotometer and using a calibration curve.
A suspension was prepared by placing a predetermined amount of hydrocortisone into a mortar, grinding it with pestle, and then adding physiological saline to make the final concentration of 10 mg/ml.
A predetermined amount of each peptide (peptides R13 and R19) was dissolved in physiological saline to make a 20 mg/ml solution. A 2 mg/ml solution was prepared by diluting the 20 mg/ml solution 10-fold with physiological saline. A 5 mg/ml solution was prepared by dissolving each peptide in a predetermined amount in physiological saline to make a prepared solution.
A mixed solution of OVA and Evans blue dye was administered into the tail vein at a dose of 2 ml/kg. Each peptide solution was administered intraperitoneally or into the tail vein 30 minutes or 50 minutes after the administration of the mixed solution of OVA and Evans blue dye, respectively. […]
Several cuttings were made in the skin strips that were punched out with a punch. […] The amount of dye leakage was calculated from a calibration curve of known amounts of the dye.
The mean value (mean)±standard deviation (SD) for each group was calculated with body-weight measurements and amounts of dye leakage. […]

[5] = tail vein administration, 10 mg/kg

Compound: dYdPdYGdFdL [scramble peptide, reference compound]
suppression effect (clinical score) ([1]; negative control peptide, once a day, 25 consecutive days): did not exhibit any suppression effects

inhibition of the binding between C1q and immunoglobulin [2]: inhibit the binding
Compound: CKAPGLYYF (Immunoglobulin binding peptide) [R10]

Compound: dSdKdVdPGdLdYdYdF ([dS][dK][dV][dP]G[dL][dY][dY][dF]) [R19]
arthritis-suppressing effect (clinical score) compared with methotrexate [3]: arthritis-suppressing effect comparable to or greater than that of methotrexate | suppression (decrease of dye leakage) compared to negative control ([4]; intraperitoneal administration, 100 mg/kg): 50% | suppression effect (dye leakage) compared to negative control ([4]; intraperitoneal administration, 10 or 100 mg/kg): suppressed | suppression (decrease of dye leakage) compared to negative control [4, 5]: about 50% | suppression effect (dye leakage) compared to negative control [4, 5]: suppressed

Compound: CC(C)C[C@@H](NC(=O)CNC(=O)[C@H]1CCCN1)C(=O)N[C@H](Cc1ccc(O)cc1)C(=O)N[C@H](Cc1ccc(O)cc1)C(=O)N[C@H](Cc1ccccc1)C(=O)O [R13, dPGdLdYdYdF] (H-[dP]G[dL][dY][dY][dF]-OH)
abnormalities in general condition and effects on body weight ([1]; 100 and 10 mg/kg): abnormalities in general condition and effects on body weight were not observed

inhibition of the binding between C1q and immunoglobulin [2]: inhibit the binding
Compound: STAKFTCKVPGLYYF (Immunoglobulin binding peptide) [R11]
